How the values were obtained:
MCF7 [1] = assay: Cytotoxicity against human MCF7 cells expressing VEGFR2 and wild type BRAF measured after 48 hrs by sulforhodamine B assay; assay type: functional, cell-based; settings: MCF7, 48 h
[2] = target: Vascular endothelial growth factor receptor 2 (Homo sapiens, UniProt P35968); assay: Inhibition of human N-terminal GST tagged VEGFR-2 expressed in baculovirus infected Sf9 cells using poly (Glu,Tyr) 4:1 as substrate in presence of ATP by Kinase-Glo luminescence assay
MOLT-4 = assay: Growth inhibition of human MOLT4 cells at 10 uM incubated for 48 hrs by sulforhodamine B assay relative to control; assay type: functional; settings: MOLT-4, 48 h, read-out: GI
CCRF-CEM = assay: Growth inhibition of human CCRF-CEM cells at 10 uM incubated for 48 hrs by sulforhodamine B assay relative to control; assay type: functional; settings: read-out: GI
T47D [3] = assay: Growth inhibition of human T47D cells at 10 uM incubated for 48 hrs by sulforhodamine B assay relative to control; assay type: functional; settings: read-out: GI
BT-549 = assay: Growth inhibition of human BT549 cells at 10 uM incubated for 48 hrs by sulforhodamine B assay relative to control; assay type: functional; settings: BT-549, 48 h, read-out: GI
MDA-MB-231 = assay: Growth inhibition of human MDA-MB-231 cells at 10 uM incubated for 48 hrs by sulforhodamine B assay relative to control; assay type: functional; settings: MDA-MB-231, 48 h, read-out: GI
PC-3 = assay: Growth inhibition of human PC3 cells at 10 uM incubated for 48 hrs by sulforhodamine B assay relative to control; assay type: functional; settings: PC-3, 48 h, read-out: GI
A498 = assay: Growth inhibition of human A498 cells at 10 uM incubated for 48 hrs by sulforhodamine B assay relative to control; assay type: functional; settings: A498, 48 h, read-out: GI
UACC-62 = assay: Growth inhibition of human UACC62 cells at 10 uM incubated for 48 hrs by sulforhodamine B assay relative to control; assay type: functional; settings: UACC-62, 48 h, read-out: GI
MDA-MB-468 = assay: Growth inhibition of human MDA-MB-468 cells at 10 uM incubated for 48 hrs by sulforhodamine B assay relative to control; assay type: functional; settings: MDA-MB-468, 48 h, read-out: GI
SK-MEL-5 = assay: Growth inhibition of human SK-MEL-5 cells at 10 uM incubated for 48 hrs by sulforhodamine B assay relative to control; assay type: functional; settings: SK-MEL-5, 48 h, read-out: GI
UO-31 = assay: Growth inhibition of human UO31 cells at 10 uM incubated for 48 hrs by sulforhodamine B assay relative to control; assay type: functional; settings: UO-31, 48 h, read-out: GI
SN12C = assay: Growth inhibition of human SN12C cells at 10 uM incubated for 48 hrs by sulforhodamine B assay relative to control; assay type: functional; settings: read-out: GI
A549 = assay: Growth inhibition of human A549/ATCC cells at 10 uM incubated for 48 hrs by sulforhodamine B assay relative to control; assay type: functional; settings: A549, 48 h, read-out: GI
NCI/ADR-RES = assay: Growth inhibition of human NCI/ADR-RES cells at 10 uM incubated for 48 hrs by sulforhodamine B assay relative to control; assay type: functional; settings: read-out: GI
SNB-75 = assay: Growth inhibition of human SNB75 cells at 10 uM incubated for 48 hrs by sulforhodamine B assay relative to control; assay type: functional; settings: SNB-75, 48 h, read-out: GI
RPMI-8226 = assay: Growth inhibition of human RPMI8226 cells at 10 uM incubated for 48 hrs by sulforhodamine B assay relative to control; assay type: functional; settings: RPMI-8226, 48 h, read-out: GI
K562 = assay: Growth inhibition of human K562 cells at 10 uM incubated for 48 hrs by sulforhodamine B assay relative to control; assay type: functional; settings: K562, 48 h, read-out: GI
IGROV-1 = assay: Growth inhibition of human IGROV1 cells at 10 uM incubated for 48 hrs by sulforhodamine B assay relative to control; assay type: functional; settings: IGROV-1, 48 h, read-out: GI
OVCAR-8 = assay: Growth inhibition of human OVCAR8 cells at 10 uM incubated for 48 hrs by sulforhodamine B assay relative to control; assay type: functional; settings: OVCAR-8, 48 h, read-out: GI
NCI-H226 = assay: Growth inhibition of human NCI-H226 cells at 10 uM incubated for 48 hrs by sulforhodamine B assay relative to control; assay type: functional; settings: NCI-H226, 48 h, read-out: GI
CAKI-1 = assay: Growth inhibition of human Caki1 cells at 10 uM incubated for 48 hrs by sulforhodamine B assay relative to control; assay type: functional; settings: CAKI-1, 48 h, read-out: GI
HCT-116 = assay: Growth inhibition of human HCT116 cells at 10 uM incubated for 48 hrs by sulforhodamine B assay relative to control; assay type: functional; settings: HCT-116, 48 h, read-out: GI
NCI-H522 = assay: Growth inhibition of human NCI-H522 cells at 10 uM incubated for 48 hrs by sulforhodamine B assay relative to control; assay type: functional; settings: NCI-H522, 48 h, read-out: GI
LOX IMVI = assay: Growth inhibition of human LOXIMVI cells at 10 uM incubated for 48 hrs by sulforhodamine B assay relative to control; assay type: functional; settings: read-out: GI
ACHN = assay: Growth inhibition of human ACHN cells at 10 uM incubated for 48 hrs by sulforhodamine B assay relative to control; assay type: functional; settings: read-out: GI
NCI-H23 = assay: Growth inhibition of human NCI-H23 cells at 10 uM incubated for 48 hrs by sulforhodamine B assay relative to control; assay type: functional; settings: NCI-H23, 48 h, read-out: GI
SR = assay: Growth inhibition of human SR cells at 10 uM incubated for 48 hrs by sulforhodamine B assay relative to control; assay type: functional; settings: read-out: GI
MCF7 [4] = assay: Inhibition of VEGFR2 level in human MCF7 cells at 10 uM measured after 48 hrs by ELISA relative to control; assay type: functional; settings: MCF7, 48 h
MCF7 [5] = assay: Growth inhibition of human MCF7 cells at 10 uM incubated for 48 hrs by sulforhodamine B assay relative to control; assay type: functional; settings: MCF7, 48 h, read-out: GI
T47D [6] = assay: Cytotoxicity against human T47D cells expressing wild type BRAF measured after 48 hrs by sulforhodamine B assay; assay type: functional, cell-based
[7] = target: Serine/threonine-protein kinase B-raf (Homo sapiens, UniProt P15056); assay: Inhibition of human wild type BRAF by Kinase-Glo luminescence assay
Sequence of Serine/threonine-protein kinase B-raf (P15056 whole entry): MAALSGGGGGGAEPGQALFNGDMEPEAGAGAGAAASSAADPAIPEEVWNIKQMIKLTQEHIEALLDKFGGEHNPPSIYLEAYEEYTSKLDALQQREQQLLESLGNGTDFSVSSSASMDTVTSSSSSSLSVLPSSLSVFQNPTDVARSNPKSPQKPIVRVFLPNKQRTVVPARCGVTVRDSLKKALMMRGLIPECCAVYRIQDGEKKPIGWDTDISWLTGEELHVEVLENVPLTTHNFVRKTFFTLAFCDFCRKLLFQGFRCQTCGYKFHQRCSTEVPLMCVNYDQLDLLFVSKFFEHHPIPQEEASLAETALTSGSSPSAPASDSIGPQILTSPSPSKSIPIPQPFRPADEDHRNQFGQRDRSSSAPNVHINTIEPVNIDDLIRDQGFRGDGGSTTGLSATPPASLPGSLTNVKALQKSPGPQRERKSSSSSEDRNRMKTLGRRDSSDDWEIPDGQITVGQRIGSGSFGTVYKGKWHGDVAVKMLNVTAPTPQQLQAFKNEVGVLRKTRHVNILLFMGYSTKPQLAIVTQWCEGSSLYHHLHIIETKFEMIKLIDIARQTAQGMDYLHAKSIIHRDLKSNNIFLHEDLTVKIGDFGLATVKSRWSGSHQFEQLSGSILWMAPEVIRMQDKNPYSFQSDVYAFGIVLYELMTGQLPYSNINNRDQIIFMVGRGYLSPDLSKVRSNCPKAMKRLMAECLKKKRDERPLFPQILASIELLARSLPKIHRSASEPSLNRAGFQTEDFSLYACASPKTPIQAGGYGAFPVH

Sequence of Vascular endothelial growth factor receptor 2 (P35968 whole entry): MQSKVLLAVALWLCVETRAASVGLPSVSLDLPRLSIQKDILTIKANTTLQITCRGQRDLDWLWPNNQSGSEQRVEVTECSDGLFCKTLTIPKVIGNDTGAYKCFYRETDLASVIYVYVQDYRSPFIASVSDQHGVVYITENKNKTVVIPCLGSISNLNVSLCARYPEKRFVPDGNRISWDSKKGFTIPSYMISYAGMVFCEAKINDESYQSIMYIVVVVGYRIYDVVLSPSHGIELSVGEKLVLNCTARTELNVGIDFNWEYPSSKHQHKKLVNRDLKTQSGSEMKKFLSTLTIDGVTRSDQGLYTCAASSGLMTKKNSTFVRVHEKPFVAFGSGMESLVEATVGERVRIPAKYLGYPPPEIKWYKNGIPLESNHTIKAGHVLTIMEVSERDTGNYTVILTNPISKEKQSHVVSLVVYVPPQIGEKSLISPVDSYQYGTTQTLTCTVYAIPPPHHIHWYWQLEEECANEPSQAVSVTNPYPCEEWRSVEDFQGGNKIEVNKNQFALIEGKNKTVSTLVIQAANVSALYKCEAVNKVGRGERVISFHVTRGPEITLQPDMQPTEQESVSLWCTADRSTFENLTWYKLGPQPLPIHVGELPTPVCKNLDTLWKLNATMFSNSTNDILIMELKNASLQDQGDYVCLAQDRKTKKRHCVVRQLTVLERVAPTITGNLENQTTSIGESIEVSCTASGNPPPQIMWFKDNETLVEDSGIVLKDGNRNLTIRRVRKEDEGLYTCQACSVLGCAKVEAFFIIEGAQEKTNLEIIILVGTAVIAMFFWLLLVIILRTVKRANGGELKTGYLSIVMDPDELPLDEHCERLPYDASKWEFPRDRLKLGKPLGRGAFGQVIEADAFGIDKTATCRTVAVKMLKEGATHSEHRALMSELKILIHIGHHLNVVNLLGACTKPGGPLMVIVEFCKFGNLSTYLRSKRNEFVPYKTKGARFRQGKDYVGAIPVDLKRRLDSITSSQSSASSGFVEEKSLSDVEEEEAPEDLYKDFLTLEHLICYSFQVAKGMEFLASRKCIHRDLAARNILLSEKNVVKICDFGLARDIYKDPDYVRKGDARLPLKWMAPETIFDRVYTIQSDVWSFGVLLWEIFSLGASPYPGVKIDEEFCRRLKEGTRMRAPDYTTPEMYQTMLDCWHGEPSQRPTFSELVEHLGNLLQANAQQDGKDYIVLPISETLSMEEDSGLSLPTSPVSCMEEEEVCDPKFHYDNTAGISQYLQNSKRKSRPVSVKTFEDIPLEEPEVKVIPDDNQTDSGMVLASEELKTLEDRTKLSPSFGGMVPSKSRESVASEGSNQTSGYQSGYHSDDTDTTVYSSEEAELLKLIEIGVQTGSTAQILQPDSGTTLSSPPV

## CCOC(=O)c1ccc(Nc2ccnc(SCC(=O)c3ccc(Cl)cc3)n2)cc1
MCF7 [1]
  IC50: 20 µM
[2]
  IC50: > 10 µM

## CC(=O)c1ccc(Nc2ccnc(SCC(=O)c3ccc(Br)cc3)n2)cc1
MOLT-4
  inhibition of growth at 10 µM: 39%
CCRF-CEM
  inhibition of growth at 10 µM: 30%
T47D [3]
  inhibition of growth at 10 µM: 44%
BT-549
  inhibition of growth at 10 µM: 19%
MDA-MB-231
  inhibition of growth at 10 µM: 12%
PC-3
  inhibition of growth at 10 µM: 25%
A498
  inhibition of growth at 10 µM: 19%
UACC-62
  inhibition of growth at 10 µM: 23%
MDA-MB-468
  inhibition of growth at 10 µM: 21%
SK-MEL-5
  inhibition of growth at 10 µM: 17%
UO-31
  inhibition of growth at 10 µM: 38%
SN12C
  inhibition of growth at 10 µM: 14%
A549
  inhibition of growth at 10 µM: 10%
NCI/ADR-RES
  inhibition of growth at 10 µM: 31%
SNB-75
  inhibition of growth at 10 µM: 13%
RPMI-8226
  inhibition of growth at 10 µM: 35%
K562
  inhibition of growth at 10 µM: 30%
IGROV-1
  inhibition of growth at 10 µM: 12%
OVCAR-8
  inhibition of growth at 10 µM: 18%
NCI-H226
  inhibition of growth at 10 µM: 25%
CAKI-1
  inhibition of growth at 10 µM: 24%
HCT-116
  inhibition of growth at 10 µM: 10%
NCI-H522
  inhibition of growth at 10 µM: 29%
LOX IMVI
  inhibition of growth at 10 µM: 14%
MCF7 [1]
  IC50: 17.2 µM
ACHN
  inhibition of growth at 10 µM: 10%
NCI-H23
  inhibition of growth at 10 µM: 16%
SR
  inhibition of growth at 10 µM: 25%
[2]
  IC50: 0.95 µM
MCF7 [4]
  inhibition at 10 µM: 76%
MCF7 [5]
  inhibition of growth at 10 µM: 18%

## CCOC(=O)c1ccc(Nc2ccnc(SCC(=O)c3ccc(C(F)(F)F)cc3)n2)cc1
T47D [6]
  IC50: 32.1 µM
MCF7 [1]
  IC50: 19.6 µM
[2]
  IC50: 1.96 µM
MCF7 [4]
  inhibition at 10 µM: 76%

## CC(=O)c1cccc(Nc2ccnc(SCC(=O)c3ccc(Cl)cc3)n2)c1
T47D [6]
  IC50: 33 µM
MCF7 [1]
  IC50: 53.6 µM
[2]
  IC50: 0.48 µM

## COc1ccc(C(=O)CSc2nccc(Nc3ccc(C(=O)O)cc3)n2)cc1
MCF7 [1]
  IC50: 37.8 µM
[2]
  IC50: 1.43 µM
MCF7 [4]
  inhibition at 10 µM: 40%

## O=C(O)c1ccc(Nc2ccnc(SCC(=O)c3ccc(Br)cc3)n2)cc1
MCF7 [1]
  IC50: 81.2 µM
[2]
  IC50: > 10 µM

## CCOC(=O)c1ccc(Nc2ccnc(SCC(=O)c3ccc(-c4ccccc4)cc3)n2)cc1
MCF7 [1]
  IC50: 68.5 µM
[2]
  IC50: 0.34 µM

## COc1ccc(C(=O)CSc2nccc(Nc3ccc(C(C)=O)cc3)n2)cc1
MCF7 [1]
  IC50: 80.3 µM
[2]
  IC50: 0.49 µM

## O=C(O)c1ccc(Nc2ccnc(SCC(=O)c3ccc(Cl)cc3)n2)cc1
[7]
  IC50: 0.37 µM
MCF7 [1]
  IC50: 37.2 µM
[2]
  IC50: 0.17 µM
MCF7 [4]
  inhibition at 10 µM: 35%
